Data: US20220184072A1 (priority 2019, published 2022)

Tested on: ZFD rats
Test: ZFD rat model, paw cold response
Type: in vivo
Method: Forty (40) adult, male […] rats weighing 225-275 g at the start of the study are used in these experiments, including ten (10) lean, controls and thirty (30) ZFD rats. Animals are maintained in the vivarium at a controlled room temperature between 65 to 85° F. and a relative humidity between 30-70% under illumination by fluorescent lighting on a daily 12-hour light/dark cycle. All animals are maintained 2 per cage with free access to dry food and water.
Paw cold response threshold: This test replicates the clinical test of cold pain perception threshold. Rats are transferred to a testing cage with a wire mesh bottom and allowed to acclimate. A rigid filament attached to a Peltier thermoelectric cooling system is used to stimulate the plantar surface of the hind paw for 5 seconds. The stimulus is repeated 10 times at 2 to 5 minute intervals and the number of paw withdrawal responses is recorded and converted to a response frequency (%). This paradigm is repeated at various stimulation temperatures.
Dosing procedures. Zucker Fatty Diabetic rats are found to develop hyperglycemia over 6-8 weeks. […] Upon confirmation of the presence of painful neuropathy, rats are tested for three measures of hyperalgesia: cold allodynia threshold, tactile hyperalgesia (von Frey filaments), and pressure responses measured by a mechanical von Frey device. All rats are tested in all three assays and all rats receive each of four (4) pre-treatments administered subcutaneously (s.c.) in a vehicle of 10% Trappsol in water. All rats receive treatments in the same order, as follows: vehicle, 1 mg/kg Compound of Ex. 1, 3 mg/kg Compound of Ex. 1, and 10 mg/kg Compound of Ex. 1. Rats receive pre-treatments 30 minutes prior to the start of testing. Hyperalgesia/allodynia measures are recorded from each rat at baseline (0 time), then 1, 2, 3, 4, and 6 h after treatment.
After the completion of testing of all rats at all dose/conditions for each assay (cold, tactile, and pressure responses) rats are out-fitted with cannulas for intrathecal (i.t.) application of vehicle or Compound of Ex. 1 (1, 3 or 10 μg) directly to spinal cord. All rats are then re-tested in each of the tree assays at each of the 4 pretreatment conditions/doses.

O=C1CN2c3c(cccc3[C@@H]3CN(CCCOc4ccc(F)cc4)CC[C@@H]32)N1 [Example 1, (6bR,10aS)-8-(3-(4-fluorophenoxy)propyl)-6b,7,8,9,10,10a-hexahydro-1H-pyrido[3′,4′:4,5]pyrrolo[1,2,3-de]quinoxalin-2(3H)-one]
Cold Test response frequency (Control rats, 10 μg i.t., 0 hr): 17%
Cold Test response frequency (Control rats, 10 μg i.t., 1 hr): 11%
Cold Test response frequency (Control rats, 10 μg i.t., 2 hr): 20%
Cold Test response frequency (Control rats, 10 μg i.t., 4 hr): 14%
Cold Test response frequency (Control rats, 10 mg/kg s.c., 0 hr): 16%
Cold Test response frequency (Control rats, 10 mg/kg s.c., 1 hr): 18%
Cold Test response frequency (Control rats, 10 mg/kg s.c., 2 hr): 10%
Cold Test response frequency (Control rats, 10 mg/kg s.c., 4 hr): 10%
Cold Test response frequency (ZFD rats, 1 μg i.t., 0 hr): 93%
Cold Test response frequency (ZFD rats, 1 μg i.t., 1 hr): 90%
Cold Test response frequency (ZFD rats, 1 μg i.t., 2 hr): 83%
Cold Test response frequency (ZFD rats, 1 μg i.t., 4 hr): 83%
Cold Test response frequency (ZFD rats, 3 μg i.t., 0 hr): 77%
Cold Test response frequency (ZFD rats, 3 μg i.t., 1 hr): 37%
Cold Test response frequency (ZFD rats, 3 μg i.t., 2 hr): 27%
Cold Test response frequency (ZFD rats, 3 μg i.t., 4 hr): 70%
Cold Test response frequency (ZFD rats, 10 μg i.t., 0 hr): 93%
Cold Test response frequency (ZFD rats, 10 μg i.t., 1 hr): 33%
Cold Test response frequency (ZFD rats, 10 μg i.t., 2 hr): 33%
Cold Test response frequency (ZFD rats, 10 μg i.t., 4 hr): 77%
Cold Test response frequency (ZFD rats, 1 mg/kg s.c., 0 hr): 88%
Cold Test response frequency (ZFD rats, 1 mg/kg s.c., 1 hr): 96%
Cold Test response frequency (ZFD rats, 1 mg/kg s.c., 2 hr): 94%
Cold Test response frequency (ZFD rats, 1 mg/kg s.c., 4 hr): 86%
Cold Test response frequency (ZFD rats, 3 mg/kg s.c., 0 hr): 88%
Cold Test response frequency (ZFD rats, 3 mg/kg s.c., 1 hr): 32%
Cold Test response frequency (ZFD rats, 3 mg/kg s.c., 2 hr): 26%
Cold Test response frequency (ZFD rats, 3 mg/kg s.c., 4 hr): 90%
Cold Test response frequency (ZFD rats, 10 mg/kg s.c., 0 hr): 90%
Cold Test response frequency (ZFD rats, 10 mg/kg s.c., 1 hr): 28%
Cold Test response frequency (ZFD rats, 10 mg/kg s.c., 2 hr): 16%
Cold Test response frequency (ZFD rats, 10 mg/kg s.c., 4 hr): 48%
